In assay [1] the target is T1, Neuropeptide Y receptor type 4 (Homo sapiens, UniProt P50391). The assay is described as follows: Displacement of [3H]UR-KK200 from human neuropeptide Y Y4 receptor expressed in CHO-mtAEQ cells co-expressing Gqi5 measured after 90 mins by scintillation counting analysis. Format: cell-based.
Assay [2] has as its target T1, Neuropeptide Y receptor type 4. As to the kind of experiment: Displacement of [3H]UR-KK200 from human neuropeptide Y Y4 receptor expressed in CHO-mtAEQ cells co-expressing Gqi5 assessed as fold change in affinity measured after 90 mins by scintillation counting analysis relative to Ac-Arg-Tyr-Arg-Leu-Arg-Tyr-NH2. Format: cell-based. The note with it: filed as agonist.

Assay [3] shares this target. As to the kind of experiment: Agonist activity at human neuropeptide Y Y4 receptor expressed in HEK293T-ARRB1 cells assessed as stimulation of beta-arrestin 1 recruitment by multimode plate reader. Format: functional, cell-based. In general terms: Arrestin recruitment assays detect the binding of arrestin to an activated receptor.
Assay [4] has the same target. The assay is described as follows: Intrinsic activity at human neuropeptide Y Y4 receptor expressed in HEK293T-ARRB1 cells assessed as stimulation of beta-arrestin 1 recruitment by multimode plate reader relative to hPP. The class given is functional, cell-based.
The target is the same in assay [5]. The assay is described as follows: Agonist activity at human neuropeptide Y Y4 receptor expressed in HEK293T-ARRB2 cells assessed as stimulation of beta-arrestin 2 recruitment by multimode plate reader. Format: functional, cell-based.
Assay [6] has the same target. As to the kind of experiment: Intrinsic activity at human neuropeptide Y Y4 receptor expressed in HEK293T-ARRB2 cells assessed as stimulation of beta-arrestin 2 recruitment by multimode plate reader relative to hPP. The class given is functional, cell-based.
For assay [7] the target is unchanged. The assay is described as follows: Agonist activity at human neuropeptide Y Y4 receptor expressed in CHO-mtAEQ cells co-expressing Gqi5 by calcium aequorin assay. Format: functional, cell-based.
The target is the same in assay [8]. As to the kind of experiment: Intrinsic activity at human neuropeptide Y Y4 receptor expressed in CHO-mtAEQ cells co-expressing Gqi5 by calcium aequorin assay. The class given is functional, cell-based.
Assay [9] addresses T2, Neuropeptide Y receptor type 1 (Homo sapiens, UniProt P25929).
T2 sequence (P25929 whole entry): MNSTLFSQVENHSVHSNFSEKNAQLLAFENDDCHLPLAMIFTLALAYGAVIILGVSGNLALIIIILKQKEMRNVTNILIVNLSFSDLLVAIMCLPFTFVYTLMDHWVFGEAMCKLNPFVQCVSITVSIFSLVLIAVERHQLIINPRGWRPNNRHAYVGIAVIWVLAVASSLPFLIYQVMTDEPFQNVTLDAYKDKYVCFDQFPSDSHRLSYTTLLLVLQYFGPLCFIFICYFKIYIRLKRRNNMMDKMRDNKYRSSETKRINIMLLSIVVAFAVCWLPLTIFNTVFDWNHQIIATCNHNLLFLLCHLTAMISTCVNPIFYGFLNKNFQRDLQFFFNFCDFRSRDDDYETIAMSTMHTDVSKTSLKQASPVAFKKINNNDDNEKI
As to the kind of experiment: Displacement of [3H]UR-MK299 from human neuropeptide Y Y1 receptor in human SK-N-MC cells measured after 90 mins by scintillation counting analysis. The class given is cell-based. A general note: Loss of bound radioactivity is the signal in a displacement assay; it reports binding, not function.

In assay [10] the target is T3, Neuropeptide Y receptor type 2 (Homo sapiens, UniProt P49146).
T3 sequence (P49146 whole entry): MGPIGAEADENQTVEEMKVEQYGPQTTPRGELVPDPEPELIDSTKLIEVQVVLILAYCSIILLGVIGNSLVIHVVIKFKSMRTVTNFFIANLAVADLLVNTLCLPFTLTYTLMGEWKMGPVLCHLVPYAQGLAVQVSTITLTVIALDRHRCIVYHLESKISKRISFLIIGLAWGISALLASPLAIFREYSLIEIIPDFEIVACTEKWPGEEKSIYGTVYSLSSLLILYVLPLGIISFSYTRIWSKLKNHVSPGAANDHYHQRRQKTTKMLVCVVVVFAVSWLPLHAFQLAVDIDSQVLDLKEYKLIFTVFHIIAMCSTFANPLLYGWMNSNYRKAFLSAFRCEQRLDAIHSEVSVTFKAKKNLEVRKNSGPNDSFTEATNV
As to the kind of experiment: Displacement of [3H]UR-MK299 from human neuropeptide Y Y2 receptor expressed in CHO cells measured after 90 mins by scintillation counting analysis. Format: cell-based.

The target of assay [11] is T4, Neuropeptide Y receptor type 5 (Homo sapiens, UniProt Q15761).
T4 sequence (Q15761 whole entry): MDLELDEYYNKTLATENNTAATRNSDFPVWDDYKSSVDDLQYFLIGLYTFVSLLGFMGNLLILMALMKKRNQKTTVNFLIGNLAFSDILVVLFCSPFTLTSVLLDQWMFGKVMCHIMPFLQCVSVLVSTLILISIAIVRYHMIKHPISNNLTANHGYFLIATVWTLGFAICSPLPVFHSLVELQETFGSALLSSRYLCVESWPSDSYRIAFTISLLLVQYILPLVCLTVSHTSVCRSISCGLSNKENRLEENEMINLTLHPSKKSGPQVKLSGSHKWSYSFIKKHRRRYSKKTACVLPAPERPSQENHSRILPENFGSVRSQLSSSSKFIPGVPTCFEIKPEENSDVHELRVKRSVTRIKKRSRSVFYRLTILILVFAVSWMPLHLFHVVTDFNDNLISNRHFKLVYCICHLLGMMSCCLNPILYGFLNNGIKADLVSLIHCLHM
The assay is described as follows: Displacement of [3H]propionyl-pNPY from human neuropeptide Y Y5 receptor in human HEC-1B cells measured after 90 mins by scintillation counting analysis. The class given is cell-based, HEC-1B cell line.

Assay [12] is filed under the species Homo sapiens. The assay is described as follows: Selectivity ratio, Ki for displacement of [3H]UR-MK299 from human neuropeptide Y Y1 receptor in human SK-N-MC cells measured after 90 mins by scintillation counting analysis to Ki for displacement of [3H]UR-KK200 from human neuropeptide Y Y4 receptor expressed in CHO-mtAEQ cells co-expressing Gqi5 measured after 90 mins by scintillation counting analysis. The class given is cell-based.

Assay [13] is filed under the species Homo sapiens. The assay is described as follows: Selectivity ratio, Ki for displacement of [3H]UR-MK299 from human neuropeptide Y Y2 receptor expressed in CHO cells measured after 90 mins by scintillation counting analysis to Ki for displacement of [3H]UR-KK200 from human neuropeptide Y Y4 receptor expressed in CHO-mtAEQ cells co-expressing Gqi5 measured after 90 mins by scintillation counting analysis. The class given is cell-based.

Assay [14] is filed under the species Homo sapiens. As to the kind of experiment: Selectivity ratio, Ki for displacement of [3H]propionyl-pNPY from human neuropeptide Y Y5 receptor in human HEC-1B cells measured after 90 mins by scintillation counting analysis to Ki for displacement of [3H]UR-KK200 from human neuropeptide Y Y4 receptor expressed in CHO-mtAEQ cells co-expressing Gqi5 measured after 90 mins by scintillation counting analysis. The class given is cell-based.

Calls of active or inactive are those of the source. The rule behind the calls is not given here. Starred links: 1 amine or outer side, 2 acyl side, 3 side chain; linkers in the order of their positions; H or OH if unused. Residues, ends and D or L forms follow the SMILES beside them. Groups on a side chain read outwards from the residue. *: point of attachment. Suc = O=C(CCC(=O)[*:2])[*:1]; NH(CH2)4NH2 = NCCCCN*; CO = O=C([*:1])[*:2]

T1 sequence (P50391 whole entry): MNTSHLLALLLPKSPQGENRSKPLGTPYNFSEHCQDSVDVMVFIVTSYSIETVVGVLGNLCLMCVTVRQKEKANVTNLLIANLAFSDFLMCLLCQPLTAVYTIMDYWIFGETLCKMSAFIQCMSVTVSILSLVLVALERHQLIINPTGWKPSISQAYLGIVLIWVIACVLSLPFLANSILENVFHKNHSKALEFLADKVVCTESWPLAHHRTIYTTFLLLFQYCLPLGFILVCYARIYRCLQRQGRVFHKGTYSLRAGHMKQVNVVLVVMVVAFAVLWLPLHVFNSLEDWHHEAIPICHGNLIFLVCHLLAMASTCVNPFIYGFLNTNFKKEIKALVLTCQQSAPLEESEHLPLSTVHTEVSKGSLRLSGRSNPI

As to `CC(C)C[C@H](NC(=O)[C@H](CCCNC(=N)N)NC(=O)[C@H](Cc1ccc(O)cc1)NC(=O)[C@H](CCCNC(=N)N)NC(=O)CCC(=O)O)C(=O)N[C@@H](CCCNC(=N)NC(=O)NCCCN)C(=O)N[C@@H](Cc1ccc(O)cc1)C(N)=O`, the Ki in assay [1] (read-out: Ki) was determined as 53 nM. Further, in assay [2], the fold change (FC) was -16. In addition, the results for the EC50 in assay [3] (read-out: pEC50 (converted)), in assay [5] and in assay [7] were greater than 10000 nM, greater than 10000 nM and greater than 10 µM, respectively. Further, the Intrinsic activity entry in assay [4], in [6] and in assay [8] was “inactive” each time.

Regarding `CC(C)C[C@H](NC(=O)[C@@H]1CC(=O)NCC(=O)N[C@H](CCCNC(=N)N)C(=O)N[C@@H](CCCNC(=N)N)C(=O)N1)C(=O)N[C@@H](CCCNC(=N)N)C(=O)N[C@@H](Cc1ccc(O)cc1)C(N)=O`, the results for the Ki in assay [1] (read-out: Ki) and in assay [1] (read-out: pKi (converted)) were 170 nM and 138 nM, respectively. For the same compound, the fold change (FC) in assay [2] was -50. Besides, the EC50 in [3] (read-out: pEC50 (converted)) was greater than 10000 nM; in [5], greater than 10000 nM; in [7], greater than 10 µM. Besides, the Intrinsic activity result in assay [4], in [6] and in assay [8] was “inactive” throughout.

As to `CC(=O)N[C@@H](CCCNC(=N)N)C(=O)N[C@@H](Cc1ccc(O)cc1)C(=O)N[C@@H](CCCNC(=N)N)C(=O)N[C@@H](CC(C)C)C(=O)N[C@@H](CCCNC(=N)N)C(=O)N[C@@H](Cc1ccc(O)cc1)C(N)=O`, the Ki in assay [9] (read-out: pKi (converted)), in assay [10] (read-out: pKi (converted)) and in [11] (read-out: pKi (converted)) was greater than 3.16 µM in each case. The Selectivity ratio in the assay filed under Homo sapiens [12], in the assay filed under Homo sapiens [13] and in the assay listed under Homo sapiens [14] was greater than 830 each time. Besides, the values for the Intrinsic activity in [4], in assay [6] and in assay [8] were 55%, 61% and 75%, respectively.

Regarding `CC(C)C[C@@H]1NC(=O)[C@H](CCCNC(=N)N)NC(=O)[C@H](Cc2ccc(O)cc2)NC(=O)[C@H](CCCNC(=N)N)NC(=O)CCC(=O)NCCCNC(=O)NC(=N)NCCC[C@@H](C(=O)N[C@@H](Cc2ccc(O)cc2)C(N)=O)NC1=O`, in assay [1] (read-out: Ki), the Ki was 140 nM. Besides, the fold change (FC) in assay [2] is -41. In addition, the EC50 was greater than 10000 nM in assay [3] (read-out: pEC50 (converted)), greater than 10000 nM in [5] and greater than 10 µM in [7]. Moreover, the Intrinsic activity entry in assay [4], in [6] and in [8] was “inactive” throughout.

In the case of `CC(C)C[C@H](NC(=O)[C@H](CCCNC(=N)NC(=O)NCCCCN)NC(=O)[C@H](CCCNC(=N)N)NC(=O)CCC(=O)O)C(=O)N[C@@H](CCCNC(=N)N)C(=O)N[C@@H](Cc1ccc(O)cc1)C(N)=O` (Suc-RR([CO-NH(CH2)4NH2])LRY-NH2), the Ki in assay [1] (read-out: Ki) is 10 nM; in [9] (read-out: pKi (converted)), greater than 10 µM; in assay [9] (sk-n-mc, read-out: Ki), greater than 10 µM; in assay [10] (read-out: Ki) it was greater than 10 µM; in assay [10] (read-out: pKi (converted)), greater than 10 µM; in [11] (read-out: pKi (converted)) it was greater than 10 µM. The fold change (FC) in [2] was -2.9. Further, the Selectivity ratio in the assay listed under Homo sapiens [12], in the assay listed under Homo sapiens [13] and in the assay filed under Homo sapiens [14] was greater than 1000 in each case. Also, the values for the EC50 in assay [3] (read-out: EC50) and in assay [5] were 990 nM and 759 nM, respectively. The Intrinsic activity was determined as 71% in assay [4] and 60% in assay [6].

Take `CC(C)C[C@H](NC(=O)[C@H](CCCNC(=N)NC(=O)NCCCCN)NC(=O)[C@H](Cc1ccc(O)cc1)NC(=O)[C@H](CCCCN)NC(=O)CCC(=O)O)C(=O)N[C@@H](CCCNC(=N)N)C(=O)N[C@@H](Cc1ccc(O)cc1)C(N)=O` (Suc-KYR([CO-NH(CH2)4NH2])LRY-NH2): the Ki was 7.1 nM in assay [1] (read-out: Ki); 6.92 nM in assay [1] (read-out: pKi (converted)); greater than 10 µM in [9] (read-out: pKi (converted)); greater than 10 µM in [9] (sk-n-mc, read-out: Ki); greater than 10 µM in assay [10] (read-out: Ki); greater than 10 µM in assay [10] (read-out: pKi (converted)). Moreover, the Ki in assay [11] (hec-1b cell line, read-out: Ki) is greater than 10 µM; in assay [11] (read-out: pKi (converted)), greater than 10 µM. In [2], the fold change (FC) is -2.1. Moreover, the Selectivity ratio in the assay filed under Homo sapiens [12] is greater than 1400; in the assay listed under Homo sapiens [13], greater than 1400; in the assay filed under Homo sapiens [14], greater than 1000. Moreover, the EC50 in assay [3] (read-out: EC50) was 270 nM; in [5] it was 295 nM. The results for the Intrinsic activity in [4] and in [6] were 57% and 61%, respectively.

(Values after ChEMBL document CHEMBL4840359, “N-Terminus to Arginine Side-Chain Cyclization of Linear Peptidic Neuropeptide Y Y4 Receptor Ligands Results in Picomolar Binding Constants” (J Med Chem, 2021).)
